Read-outs that look alike come from different tables or passages of the source.
Columns and labels:
MDA-MB-231 cells = assay: In vitro cytotoxicity (MTT), MDA-MB-231 cells; assay type: cell-based, human
From the text: (§1) As suitable cell lines there may be mentioned: human adenocarcinoma cells (CRL-229, LoVo), human ovarian carcinoma cells (CRL-1572), human breast cancer cells (MDA-MB-231), normal mouse breast cells (HC-11), mouse leukaemia cells (CCL-46, P388D1), mouse leukaemia (CCL-219, L1210), CRL-1427, human promonocyte U937 and the like. Most of these cell lines are readily available from the American Type Culture Collection. Cells lines: 0-23, 0-23 clone 2.2, LR-73, LR-73 MDR-3, T47D and T47D (GST), having developed resistance to antineoplastic agents through different mechanisms of resistance were also tested in the same manner.
(§2) All cell lines are cultured by a standard procedure in RPMI-1640®mediumsupplemented with 10% fetal bovine serum and 100 ,pg/mL of penicillin and 100 μg/mL of streptomycin.
(§3) In order to evaluate the efficiency of the compounds of formula I, the following experiments are carried out. Cytotoxicity assays are conducted on LoVo, MDA-MB-231 and P388D1 cells. The choice of these cells has been motivated by the fact that they have been specifically identified as the cause of a large number of cancer in North America in the recent years.
(§4) Tumor cells are obtained from the American Type Culture Collection. The cells are suspended at a concentration of 2.5×10^4 cells/mL in a fresh culture media (RPMI-1640, supplemented with 10% fetal calf serum). The well plates (microtitration, 96 wells) are seeded with 100 μL of the cell suspension and incubated 24 hours at 37° C. in a humid atmosphere containing 5% CO2.100 μL of fresh culture media containing different concentrations of drugs to be tested (1 to 25 μM) are added in 8 wells of each plate, and the cells are further incubated for 3 additional days at 37° C. under the same conditions. Each experiment is conducted in triplicate. Cell survival is determined by MTT method, as taught in J. Immunol Methods, 1986, 89, 271 (Denizot et al.) and Int. J. Immunopharm, 1988. 10, 785 (Page et al). The method mainly consisted of a first removal of the culture media and addition to the plates of 20 μL of a MTT solution (5 mg/mL in PBS pH 7.4). The plates are incubated at 37° C. for 4 hours and then 200 μL of dimethylsuffoxide (DMSO) area added into the wells. The plates are agitated for 15 min at room temperature and the absorbance at 540 nm measured on Titertek MC Multiwell® spectrophotometer.
(§5) The method normally used by the American National Cancer Institute for the comparison of effectiveness between drugs is based upon ID50. The ID50 is the concentration at which half of tumor cell population is killed. A comparison of the antitumor agents of the present invention with chlorambucil, which is presently used commercially, is provided to illustrate the superiority of the former.

primary brain tumors = conditions: low doses; cited from earlier work
[1] = cited from earlier work; for biological half-life: approximately
[2] = administered orally or intravenously; cited from earlier work
LoVo cells = assay: In vitro cytotoxicity (MTT), LoVo cells; assay type: cell-based; conditions: Homo sapiens, 72 h
From the text: as §1, §2, §3, §4, §5

P388D1 cells = assay: In vitro cytotoxicity (MTT), P388D1 cells; assay type: cell-based; conditions: Mus musculus, P388D1, 72 h
From the text: as §1, §2, §3, §4, §5

[3] = Acute toxicity assay, i.p. in mice (survival); assay type: in vivo, BDF1 (C57BL/6×DBA/2) mice
Description: Chlorambucil and compound 36 of the present invention were dissolved in DMSO. Each drug solution was mixed with hydrogenated soybean oil in a ratio 1:9 v/v. 100 μL of this mixture was administered i.p. to BDF1 (C57BL/6×DBA/2) mice. For each concentration of drug, varying from 9.25 to 75 mg/kg for chlorambucil or from 9.25 to 296 mg/kg for compound 36, 6 mice were treated. Survival weight and fitness were measured as criteria of toxicity.

L1210 leukaemia cells = assay: Antineoplastic assay, L1210 leukaemia in BDF1 mice; assay type: in vivo; conditions: 10 mg/kg, i.p. daily day 1 to day 9, L1210 in BDF1 mice
Description: L1210 leukaemia cells suspended in RPM1-1640 were washed, centrifuged and re-suspended in phosphate buffer saline (PBS) at a concentration of 5×10^5 cells/mL. 200 μL of the suspension were injected i.p. to BDF1 mice. From day 1 to day 9, mice were treated daily according to the NCI procedure taught in Protocols for screening chemical agents and natural products against animal tumors and other biological systems (3rd edition). Cancer Chem. Rep. Part 3 3 (2): 1-103) with i.p. injections of 10 μL of drug solution in DMSO mixed with 90 μL of hydrogenated soybean oil. Chlorambucil was tested at 1, 5 and 10 mg/kg/day and compounds 36 and 4 at 1, 10 and 50 mg/kg/day. For each concentration, six mice were treated. Control groups were treated i.p. with 100 μL of hydrogenated soybean oil containing 10% (v/v) DMSO.
The antineoplastic activity of a drug on mice bearing cancer tumors is evaluated by a value known in the art as the median survival time (T/C %). This value of T/C % is obtained by dividing the median survival time of treated mice by that of untreated mice, and the quotient is multiplied by 100. When the value of T/C % is lower than 85, the drug is considered toxic. On the other hand, a survival time greater than 125 indicates a significant antineoplastic action of the drug on cancer tumors.

[4] = Table 2, 3 days incubation, MTT, read-out: ID50 (LoVo)
[5] = Homo sapiens, MDA-MB-231, 72 h, Table 2, 3 days incubation, MTT, read-out: ID50 (MDA-MB-231)
[6] = Table 2, 3 days incubation, MTT, read-out: ID50 (P388 D1)
[7] = Homo sapiens, MDA-MB-231, 72 h, Table 1, 3 days incubation, MTT, read-out: ID50 on tumor cells, MDA-MB-231
[8] = Table 1, 3 days incubation, MTT, read-out: ID50 on tumor cells, LoVo
[9] = Table 1, 3 days incubation, MTT, read-out: ID50 on tumor cells, P388D1

Compound: 5-[3-(2-chloroethyl)ureido] 4,6-dimethyl pyridine [VIII]
- IC50 (MDA-MB-231 cells; Table 1, 3 days incubation, MTT, read-out: ID50 on tumor cells, MDA-MB-231): 50 µM

Compound: O=NN(CCCl)C(=O)NCCCl [Carmustine]
- activity in primary brain tumors (primary brain tumors): active in primary brain tumors
- biological half-life [1]: 1-1.5 h
- percentage bound to plasma proteins [1]: over 90%
- side effects [2]: nausea, vomiting, alopecia, lymphopenia, leucopenia and bone marrow depression

Compound: O=C(O)CCCc1ccc(N(CCCl)CCCl)cc1 [Chlorambucil, reference compound]
- IC50 (LoVo cells; read-out: ID50 (LoVo)): 9 µM
- IC50 (MDA-MB-231 cells; Homo sapiens, MDA-MB-231, 72 h, read-out: ID50 (MDA-MB-231)): 11 µM
- IC50 (P388D1 cells; read-out: ID50 (P388 D1)): 6.7 µM
- Acute toxicity, survival ([3]; 9.25 mg/kg i.p.): 6/6
- Acute toxicity, survival ([3]; 18.5 mg/kg i.p.): 6/6
- Acute toxicity, survival ([3]; 37 mg/kg i.p.): 6/6
- Acute toxicity, survival ([3]; 75 mg/kg i.p.): 0/6
- median survival time (T/C %) (L1210 leukaemia cells): 160%
- biological half-life [1]: 1-1.5 h
- percentage bound to plasma proteins [1]: over 90%
- side effects [2]: nausea, vomiting, alopecia, lymphopenia, leucopenia and bone marrow depression

Compound: CCc1cccc(NC(=O)NCCCl)c1 [Compound 2]
- IC50 (LoVo cells; [4]): 3.5 µM
- IC50 (MDA-MB-231 cells; [5]): 7.8 µM
- IC50 (P388D1 cells; [6]): 7 µM

Compound: CCCc1ccc(NC(=O)NCCCl)cc1 [Compound 3]
- IC50 (LoVo cells; [4]): 9.8 µM
- IC50 (MDA-MB-231 cells; [5]): 12 µM
- IC50 (P388D1 cells; [6]): 11 µM

Compound: CC(C)c1ccc(NC(=O)NCCCl)cc1 [Compound 4]
- IC50 (LoVo cells; [4]): 1.3 µM
- IC50 (MDA-MB-231 cells; [5]): 2 µM
- IC50 (P388D1 cells; [6]): 2.2 µM
- median survival time (T/C %) (L1210 leukaemia cells): 164%

Compound: CCC(C)c1ccc(NC(=O)NCCCl)cc1 (stereo not shown) [Compound 5]
- IC50 (LoVo cells; [4]): 1.6 µM
- IC50 (MDA-MB-231 cells; [5]): 2.2 µM
- IC50 (P388D1 cells; [6]): 2.4 µM

Compound: CCCCCc1ccc(NC(=O)NCCCl)cc1 [Compound 6]
- IC50 (LoVo cells; [4]): 5.5 µM
- IC50 (MDA-MB-231 cells; [5]): 6 µM
- IC50 (P388D1 cells; [6]): 7 µM

Compound: CCCCCCc1ccc(NC(=O)NCCCl)cc1 [Compound 7]
- IC50 (LoVo cells; [4]): 6.2 µM
- IC50 (MDA-MB-231 cells; [5]): 7.3 µM
- IC50 (P388D1 cells; [6]): 7.9 µM

Compound: O=C(NCCCl)Nc1ccc(C2CCCCC2)cc1 [Compound 8]
- IC50 (LoVo cells; [4]): 22 µM
- IC50 (MDA-MB-231 cells; [5]): 29 µM
- IC50 (P388D1 cells; [6]): 22 µM

Compound: CCCCCCCc1ccc(NC(=O)NCCCl)cc1 [Compound 9]
- IC50 (LoVo cells; [4]): 15 µM
- IC50 (MDA-MB-231 cells; [5]): 16 µM
- IC50 (P388D1 cells; [6]): 18 µM

Compound: CCCCCCCCc1ccc(NC(=O)NCCCl)cc1 [Compound 10]
- IC50 (LoVo cells; [4]): 29 µM
- IC50 (MDA-MB-231 cells; [5]): 33 µM
- IC50 (P388D1 cells; [6]): 32 µM

Compound: CCOc1cccc(NC(=O)NCCCl)c1 [Compound 14]
- IC50 (LoVo cells; [4]): 35 µM
- IC50 (MDA-MB-231 cells; [5]): 33 µM
- IC50 (P388D1 cells; [6]): 42 µM

Compound: CCCCCOc1ccc(NC(=O)NCCCl)cc1 [Compound 15]
- IC50 (LoVo cells; [4]): 16 µM
- IC50 (MDA-MB-231 cells; [5]): 22 µM
- IC50 (P388D1 cells; [6]): 28 µM

Compound: CCCCCCOc1ccc(NC(=O)NCCCl)cc1 [Compound 16]
- IC50 (LoVo cells; [4]): 16 µM
- IC50 (MDA-MB-231 cells; [5]): 22 µM
- IC50 (P388D1 cells; [6]): 17 µM

Compound: O=C(NCCCl)Nc1ccc(CCO)cc1 [Compound 36]
- Acute toxicity, survival ([3]; 9.25 mg/kg i.p.): 6/6
- Acute toxicity, survival ([3]; 18.5 mg/kg i.p.): 6/6
- Acute toxicity, survival ([3]; 37 mg/kg i.p.): 6/6
- Acute toxicity, survival ([3]; 75 mg/kg i.p.): 6/6
- Acute toxicity, survival ([3]; 111 mg/kg i.p.): 6/6
- Acute toxicity, survival ([3]; 148 mg/kg i.p.): 6/6
- Acute toxicity, survival ([3]; 222 mg/kg i.p.): 6/6
- Acute toxicity, survival ([3]; 296 mg/kg i.p.): 6/6
- median survival time (T/C %) (L1210 leukaemia cells): 140%

Compound: CCSc1ccc(NC(=O)NCCCl)cc1 [Compound 39]
- IC50 (MDA-MB-231 cells; [5]): 17 µM

Compound: O=C(NCCCl)Oc1ccc([N+](=O)[O-])cc1 [Compound 40, 4-nitro phenyl N-(2chloroethyl) carbamate]
- IC50 (LoVo cells; [4]): 7 µM
- IC50 (MDA-MB-231 cells; [5]): 10 µM
- IC50 (P388D1 cells; [6]): 8.2 µM

Compound: Cc1cc(OC(=O)NCCCl)ccc1[N+](=O)[O-] [Compound 47]
- IC50 (LoVo cells; [4]): 7.2 µM
- IC50 (MDA-MB-231 cells; [5]): 7.5 µM
- IC50 (P388D1 cells; [6]): 8 µM

Compound: Cc1ccc(OC(=O)NCCCl)cc1C [Compound 50]
- IC50 (LoVo cells; [4]): 30 µM
- IC50 (MDA-MB-231 cells; [5]): 40 µM
- IC50 (P388D1 cells; [6]): 40 µM

Compound: O=C(NCCCl)Oc1cccc(Cl)c1 [Compound 63]
- IC50 (LoVo cells; [4]): 7.5 µM
- IC50 (MDA-MB-231 cells; [5]): 8.5 µM
- IC50 (P388D1 cells; [6]): 5 µM

Compound: O=C(NCCCl)Nc1ccc2[nH]ccc2c1 [IX, 5-[3-(2-chloroethyl)ureido]indole]
- IC50 (MDA-MB-231 cells; [7]): 70 µM

Compound: O=C(NCCCl)Nc1ccc2c(c1)Cc1ccccc1-2 [V, 2-[3-(2chloroethyl)ureido]fluorene]
- IC50 (LoVo cells; [8]): 5 µM
- IC50 (MDA-MB-231 cells; [7]): 4 µM
- IC50 (P388D1 cells; [9]): 4 µM

Compound: O=C(NCCCl)Nc1ccc2c(c1)CCC2 [VI, 5-[3-(2-chloroethyl)ureido]indane]
- IC50 (LoVo cells; [8]): 5 µM
- IC50 (MDA-MB-231 cells; [7]): 7 µM
- IC50 (P388D1 cells; [9]): 7 µM

Compound: O=C(NCCCl)Nc1ccc2cn[nH]c2c1 [VII, 6-[3-(2-chloroethyl)ureido]indazole]
- IC50 (LoVo cells; [8]): 31 µM
- IC50 (MDA-MB-231 cells; [7]): 29 µM
- IC50 (P388D1 cells; [9]): 76 µM

Reference: US5750547A, “Certain carbanate anti-cancer agents” (priority 1996, dated 1998)
